Data reported in paper PMC3523389 (The Journal of pharmacology and experimental therapeutics, 2012).

Target: T1, microsomal prostaglandin E2 synthase-1 (mPGES-1) (Homo sapiens, UniProt O14684)
T1 sequence (O14684 1-152): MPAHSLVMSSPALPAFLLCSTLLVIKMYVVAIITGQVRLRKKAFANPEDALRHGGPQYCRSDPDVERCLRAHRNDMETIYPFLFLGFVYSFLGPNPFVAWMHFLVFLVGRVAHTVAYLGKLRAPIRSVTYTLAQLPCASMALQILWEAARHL
Experiment: cell-free mPGES-1 activity assay in A549 microsomes, […] inhibition at […]
Type: cell-based
Conditions: A549, read-out: % inhibition at 10 μM

inhibition at 10 µM: 74.5 ± 1.5%
SMILES: CC(C)c1ccc2c(c1)c(SC(C)(C)C)c(CC(C)(C)C(=O)O)n2Cc1ccc(Cl)cc1 [MK-886, 3-[1-(4-chlorobenzyl)-3-t-butylthio-5-isopropylindol-2-yl]-2,2-dimethylpropanoic acid]
